Data as given in patent publication US20240335432A1, “THERAPEUTIC COMPOUND FOR NEURONAL CEROID LIPOFUSCINOSIS” (JCR PHARMACEUTICALS CO., LTD., priority 2021, published 2024).

Tests used:
[1] = tested on: PPT1 knockout (KO) HEK293T cells or PPT1 KO CHO cells; assay: Lipofuscin fluorescence emission measurement in pathological model cells; format: cell-based; conditions: final soraprazan concentrations 100 μM-10 nM, versus 100% DMSO added
Protocol: Using mammalian cells in which a causative gene of neuronal ceroid lipofuscinosis has been knocked out as pathological model cells, a test can be performed in which an effect of removing lipofuscin accumulated in the cells by soraprazan is evaluated. For example, using PPT1 knockout (KO) HEK293T cells or PPT1 KO CHO cells, which are pathological model cells of neuronal ceroid lipofuscinosis type 1 (CLN1), a test can be performed in which an effect of removing lipofuscin accumulated in the cells by soraprazan is evaluated. Acquisition of a PPT1 KO cell line can be achieved using a conventionally known method.
Soraprazan is dissolved in dimethyl sulfoxide (DMSO) to a concentration of 10 mM. […]
Relative amounts of lipofuscin accumulated in cells can be measured by observing green autofluorescence emitted from the cells using a fluorescence microscope as described below. […] Then, under a fluorescence microscope, for example, excitation light with wavelength of 485 nm is irradiated to the cells and strength of emitted light from the cells with wavelength of 521 nm is measured. As a fluorescence microscope, for example, EVOS FLoid Imaging System (Thermo Fisher Scientific) can be used, and in this case, wavelengths of excitation light and observation light can be respectively set to 482 nm and 532 nm. […]

[2] = tested on: CLN2 cells (GM09668, GM09669, GM10570); assay: Quantification of autofluorescence as % Fluorescent Area by image analysis (HALO); format: cell-based, human; conditions: for % Fluorescent Area: 10 days culture
Protocol: (§1) Ceroid lipofuscinosis type 2 patient-derived fibroblasts (CLN2 cells, 7 donors: GM09668, GM09669, GM09404, GM10570, GM10672, GM16485, GM16486, Coriell Institute) and normal human dermal fibroblasts (NHDF cells, Cat.No.C-12300, PromoCell GmbH) were cultured in MEM (10370088, Gibco) containing 15% FBS (HyClone) and 1×GlutaMAX™ I (Gibco) (hereafter referred to as MEM). Each cell was diluted to 0.5×10^5 cells/mL with MEM and 15 mL of each cell suspension was seeded in T75 flask (3123-075, IWAKI Inc.). Cells were cultured under 37° C., 5% CO2 conditions.
(§2) Soraprazan (Symeres) was dissolved in Dimethyl sulfoxide (DMSO) to prepare soraprazan stock solution with concentrations of 1, 10, and 100 mM. Each soraprazan stock solution was diluted 1/100 concentration with MEM to prepare media with final concentrations of 0.1, 1, and 10 μM of soraprazan (0.0367, 0.367, and 3.67 μg/mL, respectively). In addition, DMSO was diluted to 1/100 concentration with MEM, which was used as a negative control (0 μM soraprazan). Hereinafter the prepared media herein were referred to as soraprazan-containing media collectively.
Each of the CLN2 cells and the NHDF cells cultured in Example 2-1 was washed twice with Dulbecco's Phosphate-Buffered Saline (DPBS, Gibco) and detached from the flask using 1 mL of 0.25% Trypsin-EDTA (Gibco). After 10 mL of MEM was added, each cell was collected in a 15 mL tube and centrifuged at room temperature at 1000 rpm for 5 minutes, and the supernatant was removed. Then, each cell was suspended at cell density of 2×10^5 cells/mL in one of soraprazan-containing media (0, 0.1, 1, and 10 μM). Then the cell suspension was dispensed in 96-well plates (655956, Gliner) with 0.4×10^5 cells per well (200 μL per well). Cells were cultured at 37° C., in the presence of 5% CO2 for 10 days. During the culture, the medium in each well was exchanged to new corresponding soraprazan-containing medium at 3, 6, and 9 days after seeding.
The observation of autofluorescence was performed after changing the medium to FluoroBrite DMEM (A1896701, Gibco) under GFP detection conditions (BZX filter GFP, excitation wavelength:470/40 nm, absorption wavelength:525/50 nm, dichroic mirror: 495 nm).
To quantify the fluorescence intensity of autofluorescence, the same tests as in Examples 2-1 to 2-4 were performed on 3 types of CLN2 cells (GM09668, GM09669, GM10570) using soraprazan-containing medium, which contained 0, 1, and 10 μM of soraprazan, respectively. It was confirmed again that the fluorescent intensity was reduced in cells cultured in soraprazan-containing medium particularly at a concentration of 10 μM. Then, the ratio of the area where fluorescent was detected in the image (fluorescent area) to the total area of the image occupied by the cells (% Fluorescent Area) was calculated using the image analysis software HALO® (v3.2.1851.354, Indica Labs). As the analysis algorithms, Indica Labs-Area Quantification FL v2 1.6 was used. Herein the area where fluorescent was detected, irrespective of the fluorescent intensity, was defined as fluorescent area, which corresponds the area where a certain amount of lipofuscin existed.

[3] = tested on: CLN2 cells; assay: Observation of autofluorescent material (lipofuscin) in CLN2 patient-derived cells by fluorescence microscopy; format: cell-based, human; conditions: CLN2 cells of 7 donors, 0.1, 1, 10 μM soraprazan, particularly at 10 μM, 10 days; FIGS. 1-8
Protocol: as §1, §2
Each of the CLN2 cells and the NHDF cells cultured in Example 2-1 was washed twice with Dulbecco's Phosphate-Buffered Saline (DPBS, Gibco) and detached from the flask using 1 mL of 0.25% Trypsin-EDTA (Gibco). […]

[4] = tested on: TPP1 knockout (KO) mice; assay: Administration test using pathological model animals, fluorescence intensities of tissues; format: in vivo, mouse; conditions: oral or intravenous soraprazan versus negative control group
Protocol: A test can be performed in which an effect of soraprazan on removing lipofuscin accumulated in animal tissues by soraprazan is evaluated using mammals in which a causative gene of neuronal ceroid lipofuscinosis has been knocked out as pathological model animals. For example, a test can be performed in which an effect of soraprazan on removing lipofuscin accumulated in mouse tissues by soraprazan is evaluated using TPP1 knockout (KO) mice, which are neuronal ceroid lipofuscinosis type 2 (CLN2) pathological model cells. Generation of the TPP1 KO mice can be performed using a conventionally known method. […]
After a certain time period, for example 0.25, 0.5, 1, 2, 4, 6, 8, or 24 hours after the last administration of a chronic treatment between one week and 12 months, all TPP1 KO mice are anesthetized with isoflurane and perfused with saline from the left ventricle for 4-5 minutes for blood removal. After that, tissues (brain, heart, lungs, liver, spleen, kidneys, quadriceps, thymus, thoracic vertebrae, femur) and peripheral blood, of which fluorescence intensities are to be measured, are collected, and are stored in physiological saline to prevent drying. Fluorescence intensity measurement of lipofuscin is performed using an appropriate fluorescence intensity measuring instrument. […]

COCCO[C@@H]1c2ccn3c(C)c(C)nc3c2N[C@H](c2ccccc2)[C@H]1O [Soraprazan, soraprazan]
amount of lipofuscin accumulated in the cells (fluorescence intensity) [1]: decreases according to the concentration of soraprazan | fluorescent intensity (autofluorescence) ([2]; 3 types of CLN2 cells, 1 and 10 μM soraprazan, particularly at 10 μM, FIGS. 9-11): reduced | % Fluorescent Area ([2]; GM09668 cells, 1 μM soraprazan): 0.944% | % Fluorescent Area ([2]; GM09668 cells, 10 μM soraprazan): 2.07% | % Fluorescent Area ([2]; GM09669 cells, 1 μM soraprazan): 10.9% | % Fluorescent Area ([2]; GM09669 cells, 10 μM soraprazan): 2.34% | % Fluorescent Area ([2]; GM10570 cells, 1 μM soraprazan): 12.3% | % Fluorescent Area ([2]; GM10570 cells, 10 μM soraprazan): 0.766% | fluorescent intensity (autofluorescence, lipofuscin accumulation) [3]: markedly reduced | amount of lipofuscin accumulated in each of the tissues (fluorescence intensity) [4]: reduces the amount of lipofuscin
